In paper PMC7010297, “How the initiating ribosome copes with ppGpp to translate mRNAs” (PLoS Biology, 2020):
“And” between values parts separate entries of the source, which are not always exact repeats. Identical values can stand only once. Like-named read-outs stand apart in the source and are kept apart here.

Target: T1, IF2-bound 30S IC (Escherichia coli, UniProt P0A705)
T1 construct: 6xHis (N); made in house
Test: 30S IC formation by MST, guanosine nucleotide titration
Assay type: binding
Excerpt: To monitor the interaction of initiator tRNA and 30S ribosomal subunits, we used Microscale Thermophoresis (MST) with a fluorescently labelled initiator tRNA (Bpy-tRNAi) (Fig 1B). MST allows to measure fluorescence in a constrained space. Changes on the readout derive from molecular drifts resulting from small thermal equilibrium perturbations. Upon equilibrium perturbations, the patterns of Bpy-tRNAi migration away from the observation space are related to bound and unbound states (Fig 1B). […] On the contrary, a decrease in thermophoresis indicated the dissociation of Bpy-tRNAi. The relation between fluorescence measured at both equilibriums (Ff to Fi, after and prior to the perturbation, respectively) as a function of ligand concentration allowed to determine dissociation constants of the interaction (Fig 1C).
Continuous lines indicate nonlinear regression fittings with a quadratic equation. Three measurements were performed; mean and standard deviation are plotted (S1 Data). (B) as (A) to measure the concentration dependence for each tested guanosine nucleotide at constant IF2 (1 μM). […] Continuous lines show best fits using exponential functions. (D) Formation of 70S IC as measured by Bpy-tRNAi accommodation in the P site of the ribosome; 0.1 μM 30S ICs were formed with Bpy-tRNAi and rapidly mixed with 0.3 μM 50S subunits on a stopped-flow apparatus as described in [14]. Colors are as in (C). Continuous lines show best fits using an exponential function for a single reaction step. Each stopped-flow trace results from the mean of 5 to 7 replicates.
MST was calculated from the respective fluorescence time dependencies (S3 Fig). […] Symbols as in (B). […] Continuous lines indicate nonlinear regression fittings with quadratic (B and E) or same-site competition (G) functions. Three measurements were performed; mean and standard deviations are plotted (S1 Data).

T1 sequence (P0A705 whole entry, looked up): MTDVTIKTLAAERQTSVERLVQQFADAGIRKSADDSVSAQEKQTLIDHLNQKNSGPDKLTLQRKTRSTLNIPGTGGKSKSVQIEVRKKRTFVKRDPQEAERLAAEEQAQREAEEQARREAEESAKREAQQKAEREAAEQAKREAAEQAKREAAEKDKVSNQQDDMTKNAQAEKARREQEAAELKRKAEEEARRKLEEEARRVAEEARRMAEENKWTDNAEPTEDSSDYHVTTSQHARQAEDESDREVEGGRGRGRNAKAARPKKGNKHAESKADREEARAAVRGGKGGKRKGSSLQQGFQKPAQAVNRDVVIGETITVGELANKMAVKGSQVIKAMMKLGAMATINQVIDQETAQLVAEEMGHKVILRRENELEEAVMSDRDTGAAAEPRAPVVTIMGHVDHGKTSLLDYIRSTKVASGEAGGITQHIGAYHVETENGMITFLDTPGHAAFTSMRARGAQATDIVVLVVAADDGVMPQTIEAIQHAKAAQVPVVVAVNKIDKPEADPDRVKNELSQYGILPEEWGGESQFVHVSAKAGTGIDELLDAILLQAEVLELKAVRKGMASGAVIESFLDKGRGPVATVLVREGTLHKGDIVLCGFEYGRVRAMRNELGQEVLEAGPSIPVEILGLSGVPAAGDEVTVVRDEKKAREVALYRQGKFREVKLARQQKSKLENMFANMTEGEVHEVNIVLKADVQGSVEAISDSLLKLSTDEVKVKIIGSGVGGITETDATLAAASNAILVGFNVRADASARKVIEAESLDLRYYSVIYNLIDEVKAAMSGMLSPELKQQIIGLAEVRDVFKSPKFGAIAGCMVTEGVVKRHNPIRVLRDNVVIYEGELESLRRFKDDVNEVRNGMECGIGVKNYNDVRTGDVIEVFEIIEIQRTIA

SMILES: Nc1nc2c(ncn2[C@@H]2O[C@H](COP(=O)(O)OP(=O)(O)OP(=O)(O)O)[C@@H](O)[C@H]2O)c(=O)[nH]1 [GTP, guanosine triphosphate]
- Kd (KD of GTP for the 30S IC, 30S IC programmed with mTufA): 280 ± 40 nM
- MST Average (mInfA, GTP 0.061 μM): 967.92 a.u.
- MST Replicates (a.u.) (mInfA, GTP 0.061 μM): 966.87 a.u. and 968.59 a.u. and 968.30 a.u.
- MST Average (mInfA, GTP 0.122 μM): 967.19 a.u.
- MST Replicates (a.u.) (mInfA, GTP 0.122 μM): 972.17 a.u. and 974.24 a.u. and 955.18 a.u.
- MST Average (mInfA, GTP 0.244 μM): 974.83 a.u.
- MST Replicates (a.u.) (mInfA, GTP 0.244 μM): 973.77 a.u. and 975.34 a.u. and 975.39 a.u.
- MST Average (mInfA, GTP 1.953 μM): 1006.13 a.u.
- MST Average (mInfA, GTP 3.906 μM): 1021.73 a.u.
- MST Replicates (a.u.) (mInfA, GTP 3.906 μM): 1021.53 a.u. and 1022.43 a.u. and 1021.24 a.u.
- MST Average (mInfA, GTP 7.812 μM): 1043.12 a.u.
- MST Replicates (a.u.) (mInfA, GTP 7.812 μM): 1042.43 a.u. and 1043.93 a.u. and 1042.99 a.u.
- MST Average (mInfA, GTP 15.625 μM): 1059.58 a.u.
- MST Replicates (a.u.) (mInfA, GTP 15.625 μM): 1058.78 a.u. and 1060.65 a.u. and 1059.32 a.u.
- MST Average (mInfA, GTP 31.25 μM): 1066.52 a.u.
- MST Replicates (a.u.) (mInfA, GTP 31.25 μM): 1066.71 a.u. and 1066.40 a.u. and 1066.45 a.u.
- MST Average (mMF1, GTP 0.061 μM): 955.96 a.u.
- MST Replicates (a.u.) (mMF1, GTP 0.061 μM): 954.37 a.u. and 956.60 a.u. and 956.92 a.u.
- MST Average (mMF1, GTP 0.122 μM): 960.57 a.u.
- MST Replicates (a.u.) (mMF1, GTP 0.122 μM): 957.75 a.u. and 961.91 a.u. and 962.05 a.u.
- MST Average (mMF1, GTP 0.244 μM): 971.65 a.u.
- MST Replicates (a.u.) (mMF1, GTP 0.244 μM): 968.94 a.u.
- MST Average (mMF1, GTP 1.953 μM): 1013.90 a.u.
- MST Average (mMF1, GTP 3.906 μM): 1027.63 a.u.
- MST Replicates (a.u.) (mMF1, GTP 3.906 μM): 1022.88 a.u. and 1029.90 a.u. and 1030.12 a.u.
- MST Average (mMF1, GTP 7.812 μM): 1034.32 a.u.
- MST Replicates (a.u.) (mMF1, GTP 7.812 μM): 1030.42 a.u. and 1036.20 a.u. and 1036.34 a.u.
- MST Average (mMF1, GTP 15.625 μM): 1039.20 a.u.
- MST Replicates (a.u.) (mMF1, GTP 15.625 μM): 1035.40 a.u. and 1041.45 a.u. and 1040.76 a.u.
- MST Average (mMF1, GTP 31.25 μM): 1035.42 a.u.
- MST Replicates (a.u.) (mMF1, GTP 31.25 μM): 1032.74 a.u. and 1036.98 a.u. and 1036.55 a.u.
- KD of GTP with mTufA lower than with mMF1 (mTufA vs mMF1): about 2 fold
- MST Average (mTufA, GTP 0.244 μM): 1017.37 a.u.
- MST Average (mTufA, GTP 1.953 μM): 1082.32 a.u.
- MST Average (mTufA, GTP 3.906 μM): 1097.99 a.u.
- MST Replicates (a.u.) (mTufA, GTP 3.906 μM): 1095.97 a.u. and 1098.36 a.u. and 1099.66 a.u.
- MST Average (mTufA, GTP 7.812 μM): 1113.91 a.u.
- MST Replicates (a.u.) (mTufA, GTP 7.812 μM): 1111.40 a.u. and 1114.56 a.u. and 1115.76 a.u.
- MST Average (mTufA, GTP 15.625 μM): 1117.61 a.u.
- MST Replicates (a.u.) (mTufA, GTP 15.625 μM): 1116.26 a.u. and 1117.65 a.u. and 1118.92 a.u.
- MST Average (mTufA, GTP 31.25 μM): 1112.61 a.u.
- MST Replicates (a.u.) (mTufA, GTP 31.25 μM): 1112.94 a.u. and 1112.01 a.u. and 1112.88 a.u.
- Kd (nucleotide titration at constant IF2 (1 μM), read-out: KD for the IF2-bound 30S IC): 500 ± 100 nM
